The text below walks through data of patent US20230138851A1, “NOVEL ALKYNE DERIVATIVES” (CARNA BIOSCIENCES, INC., priority 2020, published 2023).

What all share (type): biochemical
Assay [1] deals with T1, DYRK1A (Homo sapiens, UniProt Q13627).
T1 construct: purchased Carna Biosciences, Inc. 04-130
Put plainly: Inhibition test on activity of DYRK family, mobility shift assay (MSA), DYRK1A. Conditions: ATP 100 μM, FITC-labeled DYRKtide peptide substrate, room temperature 1 hour; for IC50: read-out: Inhibitory Activity 1a (IC50 against DYRK1A). On the procedure:
(§1) [Inhibition Test on Activity of DYRK Family (DYRK1A, DYRK1B, DYRK2, and […])]
(§2) (Method for Measuring Kinase Activity)
(§3) The kinase activity was measured by mobility shift assay (MSA) method using QuickScout Screening Assist™ MSA (commercially available kit manufactured by Carna Biosciences, Inc.). The substrate of the kinase reaction used was an FITC-labeled DYRKtide peptide included in the kit. An assay buffer [20 mM HEPES, 0.01% Triton X-100™, 2 mM dithiothreitol, pH 7.5] was used to create a substrate mixture solution with a substrate (4 μM), MgCl2 (20 mM), and ATP (DYRK1A: 100 μM; DYRK1B: 200 μM; DYRK2: 40 μM; and DYRK3: 20 μM). In addition, kinases (DYRK1A: manufactured by Carna Biosciences, Inc., Cat. No. 04-130; DYRK1B: manufactured by Carna Biosciences, Inc., Cat. No. 04-131; DYRK2; manufactured by Carna Biosciences, Inc., Cat. No. 04-132; and DYRK3; manufactured by Carna Biosciences, Inc., Cat. No. 04-133) were diluted with the assay buffer to prepare enzyme solutions (DYRK1A: 0.2 ng/μL; DYRK1B: 0.08 ng/μL; DYRK2: 0.04 ng/μL; and DYRK3: 0.25 ng/μL). The 10 mM solution of the test compound in DMSO was further diluted with DMSO to 10 levels of the concentration (0.00003 mM, 0.0001 mM, 0.0003 mM, 0.001 mM, 0.003 mM, 0.01 mM, 0.03 mM, 0.1 mM, 0.3 mM, and 1 mM), each of which was subjected to 25-fold dilution with the assay buffer to obtain a drug solution (4% DMSO solution). 5 μL of the drug solution or a control solution (4% DMSO-assay buffer), 5 μL of the substrate mixture solution, and 10 μL of the enzyme solution were mixed in the wells of a polypropylene 384-well plate and allowed to react at room temperature for 1 hour, and then the reaction was quenched by adding 60 μL of the termination buffer included in the kit. Subsequently, the quantities of the substrates (S) and the phosphorylated substrate (P) in the reaction solution were measured using LabChip EZ Reader II system (manufactured by Caliper Life Sciences) according to the protocol of the assay kit.
(§4) (Method for Evaluating Inhibitory Activity)
(§5) The heights of the peaks of the “substrate” and the “phosphorylated substrate” were expressed as S and P, respectively, and a blank containing the assay buffer instead of the enzyme solution was also measured.
(§6) The inhibition rate (%) of the test compound was calculated according to the following equation:
(§7) Inhibition rate (%)=(1−(C−A)/(B−A))×100
(§8) wherein, A, B, and C represent P/(P+S) of the blank well, P/(P+S) of the control solution well, and P/(P+S) of the compound-containing well, respectively.
(§9) The IC50 value was calculated via a regression analysis of the inhibition rate and the test compound concentration (logarithmic value).
(§10) The inhibiting activities of representative compounds of the present invention are shown against DYRK1A, DYRK1B, DYRK2, and DYRK3 in Tables 7 and 8. The kinase activity inhibitory effect was indicated with the mark *** at an IC50 value of less than 0.01 μM; the mark ** at 0.01 μM or more and less than 0.1 μM; the mark * at 0.1 μM or more and less than 1 μM; and the mark — at 1 μM or more (N.D. indicates not measured).

Assay [2] deals with T2, DYRK2 (Homo sapiens, UniProt Q92630).
T2 construct: purchased Carna Biosciences, Inc. 04-132
T2 sequence (Q92630 1-601): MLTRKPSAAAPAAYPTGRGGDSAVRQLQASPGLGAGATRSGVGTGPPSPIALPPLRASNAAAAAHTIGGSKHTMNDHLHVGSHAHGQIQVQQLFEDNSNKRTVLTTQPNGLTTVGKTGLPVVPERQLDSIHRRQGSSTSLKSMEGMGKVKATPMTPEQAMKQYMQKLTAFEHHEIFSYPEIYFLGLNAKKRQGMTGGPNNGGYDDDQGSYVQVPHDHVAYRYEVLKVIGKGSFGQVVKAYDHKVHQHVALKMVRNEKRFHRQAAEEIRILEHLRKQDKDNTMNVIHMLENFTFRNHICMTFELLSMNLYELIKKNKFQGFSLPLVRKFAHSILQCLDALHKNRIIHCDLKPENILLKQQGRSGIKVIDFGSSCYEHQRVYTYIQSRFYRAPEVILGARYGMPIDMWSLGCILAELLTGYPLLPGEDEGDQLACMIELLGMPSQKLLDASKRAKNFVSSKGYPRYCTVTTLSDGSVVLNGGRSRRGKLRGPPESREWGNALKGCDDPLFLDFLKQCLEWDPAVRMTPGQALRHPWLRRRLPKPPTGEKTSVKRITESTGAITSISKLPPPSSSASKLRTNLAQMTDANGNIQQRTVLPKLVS
Put plainly: Inhibition test on activity of DYRK family, mobility shift assay (MSA), DYRK2. The following applies: ATP 40 μM, FITC-labeled DYRKtide peptide substrate, room temperature 1 hour; for IC50: read-out: Inhibitory Activity 2 (IC50 against DYRK2). As to the method: as §1, §2, §3, §4, §5, §6, §7, §8, §9, §10

Assay [3] addresses T3, DYRK3 (Homo sapiens, UniProt O43781).
T3 construct: purchased Carna Biosciences, Inc. 04-133
T3 sequence (O43781 1-588): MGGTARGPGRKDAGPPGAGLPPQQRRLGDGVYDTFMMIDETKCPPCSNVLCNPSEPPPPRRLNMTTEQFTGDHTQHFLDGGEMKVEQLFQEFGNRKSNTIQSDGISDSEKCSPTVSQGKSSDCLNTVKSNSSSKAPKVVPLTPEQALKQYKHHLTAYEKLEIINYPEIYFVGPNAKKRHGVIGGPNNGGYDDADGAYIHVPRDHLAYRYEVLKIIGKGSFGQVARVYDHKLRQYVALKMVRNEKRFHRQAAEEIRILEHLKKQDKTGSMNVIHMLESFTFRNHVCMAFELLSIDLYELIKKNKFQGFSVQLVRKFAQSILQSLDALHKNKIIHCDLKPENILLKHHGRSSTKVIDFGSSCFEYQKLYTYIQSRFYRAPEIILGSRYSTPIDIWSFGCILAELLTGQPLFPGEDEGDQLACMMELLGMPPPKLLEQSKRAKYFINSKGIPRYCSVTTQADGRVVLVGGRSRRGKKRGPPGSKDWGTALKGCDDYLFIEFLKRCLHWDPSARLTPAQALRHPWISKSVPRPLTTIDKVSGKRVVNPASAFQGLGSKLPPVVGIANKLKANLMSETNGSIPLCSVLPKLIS
Put plainly: Inhibition test on activity of DYRK family, mobility shift assay (MSA), DYRK3. Conditions: ATP 20 μM, FITC-labeled DYRKtide peptide substrate, room temperature 1 hour; for IC50: read-out: Inhibitory Activity 3 (IC50 against DYRK3). On the procedure: as §1, §2, §3, §4, §5, §6, §7, §8, §9, §10

A value given as a limit tells only on which side of the number the result lay.

Turning to `CC#CC1CNC(=O)N1c1nc2c3c(ccc2s1)OCC(=O)N3C` (racemic) [Example 46, (RS)-9-methyl-2-[2-oxo-5-(prop-1-yn-1-yl)imidazolidin-1-yl]-7H-thiazolo[4′,5′:3,4]benz[1,2-b][1,4]oxazin-8(9H)-one], in assay [1], the “Inhibitory Activity 1a (IC50 against DYRK1A)” value (shortened to “Inhibitory Activity 1a”) was “* *”. The IC50 in assay [2] is at least 1000 nM; in assay [3] it was 100 to 1000 nM.

Regarding `CC#C[C@@H]1[C@H](C)NC(=O)N1c1nc2c3c(ccc2s1)OCO3` [Example 23, (4S,5R)-1-([1,3]dioxolo[4′,5′:5,6]benzo[1,2-d]thiazol-7-yl)-4-methyl-5-(prop-1-yn-1-yl)imidazolidin-2-one], in assay [1], the “Inhibitory Activity 1a” value is reported as “* * *”. In addition, the half-inhibitory concentration (IC50) in assay [2] and in assay [3] was 100 to 1000 nM in each case.

For `C#CC1CNC(=O)N1c1nc2c3c(ccc2s1)OCC3` (racemic) [Example 12, (RS)-1-(7,8-dihydrobenzofuro[4,5-d]thiazol-2-yl)-5-ethynylimidazolidin-2-on], the “Inhibitory Activity 1a” value in assay [1] is “* * *”. The “Inhibitory Activity 2 (IC50 against DYRK2)” value in assay [2] is reported as “* *”. The “Inhibitory Activity 3 (IC50 against DYRK3)” value in assay [3] is “* *”.

`CC#CC1CNC(=O)N1c1nc2c3c(ccc2s1)OCCN3CCOC` (racemic) [Example 42, (RS)-1-[9-(2-methoxyethyl)-8,9-dihydro-7H-thiazolo[4′,5′:3,4]benz[1,2-b][1,4]oxazin-2-yl]-5-(prop-1-yn-1-yl)imidazolidin-2-one]: the “Inhibitory Activity 1a” value in assay [1] was “* * *”. The IC50 in assay [2] was at least 1000 nM; in assay [3], 100 to 1000 nM.

`O=C1NCC(C#Cc2ccccc2)N1c1nc2c3c(ccc2s1)OCC3` (racemic) [Example 15, (RS)-1-(7,8-dihydrobenzofuro[4,5-d]thiazol-2-yl)-5-(phenylethynyl)imidazolidin-2-one]: the IC50 in assay [1] is 100 to 1000 nM; in assay [2] it was at least 1000 nM; in assay [3], at least 1000 nM.

Take `CC#C[C@H]1[C@H](CF)NC(=O)N1c1nc2c3c(ccc2s1)OCC3` (single isomer, unassigned) [Example 79, trans-1-(7,8-dihydrobenzofuro[4,5-d]thiazol-2-yl)-4-(fluoromethyl)-5-(prop-1-yn-1-yl)imidazolidin-2-one]: the results for the IC50 in assay [1], in assay [2] and in assay [3] were 100 to 1000 nM, at least 1000 nM and at least 1000 nM, respectively.

Take `CC#CC1CNC(=O)N1c1nc2c3c(ccc2s1)OCCO3` (racemic) [Example 55, (RS)-1-(7,8-dihydro-[1,4]dioxyno[2′,3′:5,6]benzo[1,2-d]thiazol-2-yl)-5-(prop-1-yn-1-yl)imidazolidin-2-one]: in assay [1], the “Inhibitory Activity 1a” value was “* * *”. Also, the 50% inhibitory concentration (IC50) in assay [2] and in assay [3] was 100 to 1000 nM each time.

On to `CC#C[C@H]1[C@H](CO)NC(=O)N1c1nc2c3c(ccc2s1)OCCO3` (single isomer, unassigned) [Example 65, trans-1-(7,8-dihydro-[1,4]dioxino[2′,3′:5,6]benz[1,2-d]thiazol-2-yl)-4-(hydroxymethyl)-5-(prop-1-yn-1-yl)imidazolidin-2-one], for which the “Inhibitory Activity 1a” value in assay [1] is “* * *”. For the same compound, the IC50 in assay [2] and in assay [3] was 100 to 1000 nM throughout.

Regarding `CC#CC1CNC(=O)N1c1nc2c3c(ccc2s1)OCC(C)N3C` (single isomer, unassigned) [Example 49, 1-(-8,9-dimethyl-8,9-dihydro-7H-thiazolo[4′,5′:3,4]benz[1,2-b][1,4]oxazin-2-yl)-5-(prop-1-yn-1-yl)imidazolidin-2-one], the “Inhibitory Activity 1a” value in assay [1] is “* * *”. Also, the half-maximal inhibitory concentration (IC50) in assay [2] is at least 1000 nM; in assay [3], 100 to 1000 nM.

`CC#C[C@@H]1[C@H](CO)NC(=O)N1c1nc2c3c(ccc2s1)OCC3` (relative stereo) [Example 60, cis-1-(7,8-dihydrobenzofuro[4,5-d]thiazol-2-yl)-4-(hydroxymethyl)-5-(prop-1-yn-1-yl)imidazolidin-2-one]: the “Inhibitory Activity 1a” value in assay [1] is “* * *”. In addition, in assay [2], the half-inhibitory concentration (IC50) was in the range of 100 to 1000 nM. Besides, the “Inhibitory Activity 3 (IC50 against DYRK3)” value in assay [3] was “* *”.
